Our source for the TGI values is PubChem BioAssay (NCI).

Some test systems named below: MCF7 breast; MDA-N; SW-620 colon; 786-0 renal; CCRF-CEM leukemia; SF-539 CNS; MDA-MB-435; M14 melanoma; TK-10 renal; ACHN renal; OVCAR-3 ovarian; OVCAR-4 ovarian; MALME-3M melanoma; SK-MEL-2 melanoma; RXF 393 renal; HOP-92 NSCLC; T-47D breast; NCI-H460 lung; BT-549 breast; UO-31 renal.
Experiment in all cases: growth of human tumour cells (NCI), 48 h

SMILES strings stand for the structures.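 Interpolation was linear, between the two tested concentrations surrounding the appropriate level; five concentrations were tested over 48 hours in 96-well plates. At the TGI there is no net growth.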

For the compound `CCOc1cc(/C=N\O)cc(/C=N/O)c1O`, the TGI in the experiment on MCF7 breast was 25 µM; with MDA-N it was greater than 100 µM; in the experiment on SW-620 colon, greater than 100 µM; with 786-0 renal it was greater than 100 µM; in the experiment on CCRF-CEM leukemia, greater than 100 µM; in the experiment with SF-539 CNS it was 61.1 µM. Also, the TGI is greater than 100 µM in the experiment with MDA-MB-435; greater than 100 µM in the experiment with M14 melanoma; greater than 100 µM in the experiment with TK-10 renal; 59.4 µM with ACHN renal; greater than 100 µM in the experiment on OVCAR-3 ovarian; greater than 100 µM with OVCAR-4 ovarian. The TGI in the experiment on MALME-3M melanoma was greater than 100 µM; in the experiment with SK-MEL-2 melanoma, 41 µM; in the experiment with RXF 393 renal it was 30.5 µM; with HOP-92 NSCLC it was 60.4 µM; in the experiment with T-47D breast, 93.8 µM; in the experiment on NCI-H460 lung it was greater than 100 µM.

Regarding `COc1ccc2c(c1)OCC1=C2Oc2ccccc2C1`, the TGI was 71.1 µM in the experiment on MDA-N; greater than 100 µM in the experiment on SW-620 colon; greater than 100 µM in the experiment on 786-0 renal; 95.7 µM in the experiment on SF-539 CNS; 71.5 µM with BT-549 breast; 84.2 µM with MDA-MB-435. Besides, the TGI in the experiment on M14 melanoma, in the experiment on TK-10 renal, in the experiment on ACHN renal, in the experiment on OVCAR-3 ovarian, in the experiment on OVCAR-4 ovarian and in the experiment with MALME-3M melanoma was greater than 100 µM each time. Also, the TGI in the experiment on SK-MEL-2 melanoma was 77.5 µM; with UO-31 renal, greater than 100 µM; in the experiment on T-47D breast it was greater than 100 µM.

Turning to `S=C(Nc1ccc(Cl)cc1)c1ccc(CN2CCCCC2)s1`, the TGI was 61.9 µM in the experiment with MCF7 breast; 16.8 µM in the experiment with MDA-N; greater than 100 µM in the experiment on SW-620 colon; greater than 100 µM in the experiment with 786-0 renal; 12.5 µM in the experiment on CCRF-CEM leukemia; greater than 100 µM in the experiment with SF-539 CNS. In addition, the TGI with BT-549 breast is 79.3 µM; with MDA-MB-435 it was 67.6 µM; in the experiment with M14 melanoma, 26.7 µM; with ACHN renal it was 60.2 µM; with OVCAR-3 ovarian, greater than 100 µM; with OVCAR-4 ovarian it was 80.7 µM. Also, the figures for the TGI with SK-MEL-2 melanoma, in the experiment on UO-31 renal and in the experiment with NCI-H460 lung were greater than 100 µM, 31.9 µM and 21.9 µM, respectively.

For `O=C1OCCC12CN(Cc1ccccc1)N=N2` (configuration not stated), the TGI with MCF7 breast, in the experiment with MDA-N, with SW-620 colon, in the experiment with 786-0 renal, in the experiment on SF-539 CNS and in the experiment on MDA-MB-435 was greater than 100 µM in each case. Further, the TGI in the experiment on M14 melanoma, in the experiment with TK-10 renal, with ACHN renal, with OVCAR-3 ovarian, in the experiment with OVCAR-4 ovarian and in the experiment on MALME-3M melanoma was greater than 100 µM throughout. The TGI with SK-MEL-2 melanoma, with RXF 393 renal, in the experiment with UO-31 renal, in the experiment with HOP-92 NSCLC, in the experiment on T-47D breast and with NCI-H460 lung was greater than 100 µM in each case.

For `c1ccc(C2(c3ccccc3)S/C(=C3/SC(c4ccccc4)(c4ccccc4)c4ccccc43)c3ccccc32)cc1`, the TGI in the experiment with MDA-N, in the experiment on SW-620 colon, in the experiment with 786-0 renal, with CCRF-CEM leukemia, with SF-539 CNS and in the experiment on BT-549 breast was greater than 100 µM throughout. Also, the TGI with MDA-MB-435, in the experiment with M14 melanoma, with TK-10 renal, in the experiment on ACHN renal, with OVCAR-3 ovarian and in the experiment with OVCAR-4 ovarian was greater than 100 µM throughout. Besides, the TGI in the experiment on MALME-3M melanoma, in the experiment with SK-MEL-2 melanoma, in the experiment on RXF 393 renal, in the experiment with UO-31 renal, with HOP-92 NSCLC and in the experiment with NCI-H460 lung was greater than 100 µM each time.

For the compound `CC1(C)CC(=O)c2c([nH]c(=S)c(C#N)c2-c2ccc(Br)cc2)C1`, the TGI with MCF7 breast, in the experiment on MDA-N, in the experiment on SW-620 colon, in the experiment with 786-0 renal, in the experiment on CCRF-CEM leukemia and with SF-539 CNS was greater than 100 µM each time. Further, the TGI in the experiment on BT-549 breast, in the experiment on MDA-MB-435, with M14 melanoma, with TK-10 renal, in the experiment on ACHN renal and with OVCAR-3 ovarian was greater than 100 µM in each case. Moreover, the TGI in the experiment on OVCAR-4 ovarian was greater than 100 µM; with MALME-3M melanoma, greater than 100 µM; in the experiment on SK-MEL-2 melanoma, 76.6 µM; in the experiment on RXF 393 renal it was greater than 100 µM; with UO-31 renal, greater than 100 µM; in the experiment with HOP-92 NSCLC, 52.5 µM. This compound also gave a TGI in the experiment on NCI-H460 lung greater than 100 µM.

For the compound `CC(=O)Oc1c(C)cc2c(c1C)C(C)(C)CN2C(=O)C(C)(C)C`, the TGI with MCF7 breast, with MDA-N, in the experiment on SW-620 colon, in the experiment on 786-0 renal, with CCRF-CEM leukemia and with SF-539 CNS was greater than 100 µM throughout. Moreover, the TGI in the experiment on MDA-MB-435, in the experiment on M14 melanoma, in the experiment with TK-10 renal, in the experiment on ACHN renal, with OVCAR-3 ovarian and with OVCAR-4 ovarian was greater than 100 µM throughout. In addition, the TGI with SK-MEL-2 melanoma is greater than 100 µM; in the experiment on RXF 393 renal, greater than 100 µM; in the experiment with UO-31 renal, greater than 100 µM; in the experiment on HOP-92 NSCLC, 74.4 µM; in the experiment with T-47D breast, 96.2 µM; in the experiment with NCI-H460 lung, greater than 100 µM.

For the compound `O=C(CC(C(=O)c1cccs1)c1ccsc1)c1ccc(Cl)cc1` (configuration not stated), the TGI in the experiment on MCF7 breast, in the experiment on MDA-N, in the experiment with SW-620 colon, with 786-0 renal, in the experiment on CCRF-CEM leukemia and with SF-539 CNS was greater than 100 µM in each case. The TGI with MDA-MB-435, in the experiment with M14 melanoma, with TK-10 renal, in the experiment with ACHN renal, with OVCAR-4 ovarian and in the experiment on MALME-3M melanoma was greater than 100 µM throughout. Besides, the TGI in the experiment with SK-MEL-2 melanoma, in the experiment with UO-31 renal, in the experiment on T-47D breast and in the experiment with NCI-H460 lung was greater than 100 µM each time.
